Laboratory results: publication PMC5524647 (Nature Communications, 2017)
“Also recorded” adds a separate entry of the source.

Legend:
mAb 4C7 [1] = assay type: binding, mouse; conditions: for Kd: read-out: K D of mAb 4C7 binding
mAb 3D11 = assay type: binding, mouse
mAb 4C7 [2] = assay type: binding, mouse
mAb 9C1-2 = assay type: binding, mouse
mAb 4C7 [3] = assay type: binding, mouse; remark: listed apart in the source
[4] = tested on: serum samples from culture-confirmed Thai melioidosis patients; assay type: binding, human
mAb Pp-PS-W = assay type: binding, mouse

CC(=O)OC1C(OC2C(O)C(CO)OC(OCCCCCNC(=O)CCCCCNC(=O)CCCCC3SCC4NC(=O)NC43)C2O)OC(C)C(O)C1OC1OC(CO)C(O)C(O)C1O (stereo not shown) [BIO-2]
K D of mAb 4C7 binding (mAb 4C7 [1]): no binding | binding of mAb 4C7 according to sensorgrams (mAb 4C7 [1]): did not interact

COC1C(O)C(C)OC(OC2C(O)C(CO)OC(OCCCCCNC(=O)CCCCCNC(=O)CCCCC3SCC4NC(=O)NC43)C2O)C1OC(C)=O (stereo not shown) [BIO-6]
binding of mAb 4C7 according to sensorgrams (mAb 4C7 [1]): bound | Kd (mAb 4C7 [1]): 0.022 µM

COC1C(OC(C)=O)C(C)OC(OC2C(O)C(CO)OC(OCCCCCNC(=O)CCCCCNC(=O)CCCCC3SCC4NC(=O)NC43)C2O)C1OC(C)=O (stereo not shown) [BIO-7]
binding of mAb 4C7 according to sensorgrams (mAb 4C7 [1]): bound | Kd (mAb 4C7 [1]): 0.12 µM

COC1C(O)C(C)OC(OC2C(O)C(CO)OC(OCCCCCN)C2O)C1OC(C)=O (stereo not shown) [disaccharide 6]
reactivity with mAb 3D11 (ELISA) (mAb 3D11): reacted strongly | reactivity with mAb 4C7 (ELISA) (mAb 4C7 [2]): reacted strongly; also recorded: highest recognition | reactivity with mAb 9C1-2 (ELISA) (mAb 9C1-2): reacted strongly | normalized STD effect, O-acetyl group (mAb 4C7 [3]): 97% | normalized STD effect, glucose proton H3 (mAb 4C7 [3]): ~60% | normalized STD effect, talose H1 (mAb 4C7 [3]): 96% | normalized STD effect, talose H4 (mAb 4C7 [3]): 88% | normalized STD effect, talose proton at position 2 (mAb 4C7 [3]): 100% | normalized STD intensities, glucose protons at positions 4, 5, and 6 (mAb 4C7 [3]): < 50%

COC1C(OC(C)=O)C(C)OC(OC2C(O)C(CO)OC(OCCCCCN)C2O)C1OC(C)=O (stereo not shown) [disaccharide 7]
reactivity of human immune serum samples with the coated antigen [4]: crossreact | reactivity with mAb Pp-PS-W (ELISA) (mAb Pp-PS-W): reacted strongly | STD-NMR effects with mAb 4C7 (mAb 4C7 [3]): some STD enhancements were observed; also recorded: Low and not quantifiable STD effects | STD-NMR signals with mAb 4C7 (mAb 4C7 [3]): did not show any signals
